Test systems include 786-0; ACHN; EKVX; HOP-92; Hs-578T; MDA-MB-435; MDA-N; NCI-H226; NCI-H460; NCI/ADR-RES; OVCAR-8; RPMI-8226; SF-539; SK-MEL-28; SNB-19; SNB-75; SR; SW-620; T47D; UACC-62.
Holding throughout (assay): growth of human tumour cells (NCI), 48 h

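Method: 48-hour compound exposure of cells in 96-well plates, five concentrations, linear interpolation of endpoints. GI50 marks 50% less growth.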 Activity calls are given as the source filed them. Cut-off read from the data, not from the text of the source: active = GI50 up to about 1.1 µM and inactive = higher.

For the compound `O=[N+]([O-])/C(C(Cl)=C(Cl)Cl)=C(/Sc1ccccc1)N1CCCCC1`, the GI50 in the experiment on 786-0 is 31.8 µM (inactive); in the experiment on ACHN it was > 100 µM (inactive); in the experiment with EKVX, > 91.4 µM (inactive); in the experiment on HOP-92, > 100 µM (inactive); in the experiment on Hs-578T, 67 µM (inactive); in the experiment on MDA-MB-435, > 36.7 µM (inactive). Moreover, the GI50 was > 61.5 µM (inactive) in the experiment with MDA-N; > 100 µM (inactive) in the experiment with NCI-H226; > 100 µM (inactive) in the experiment with NCI-H460; > 100 µM (inactive) with NCI/ADR-RES; > 58.2 µM (inactive) with OVCAR-8; > 100 µM (inactive) in the experiment on RPMI-8226. For the same compound, the GI50 with SF-539 was > 100 µM (inactive); in the experiment on SK-MEL-28, > 100 µM (inactive); in the experiment with SNB-19, > 58.7 µM (inactive); with SNB-75, > 100 µM (inactive); in the experiment with SR it was 2.79 µM (inactive); with SW-620, > 100 µM (inactive). Further, the GI50 in the experiment with T47D is 11.9 µM (inactive); with UACC-62 it was 13.9 µM (inactive).
Turning to `CC1=CC[C@@]2(C)[C@@H]([C@@H]1C)[C@H]1CC[C@@H]3[C@@]4(C)CC[C@H](O)C(C)(C)[C@@H]4CC[C@@]3(C)[C@]1(C)C[C@@H]2O`, the GI50 in the experiment with 786-0 is 12.4 µM (inactive); in the experiment with ACHN it was 9.62 µM (inactive); in the experiment with EKVX, 5.61 µM (inactive); in the experiment with HOP-92, 25.6 µM (inactive); in the experiment with Hs-578T, 37 µM (inactive); in the experiment with MDA-MB-435 it was 20.2 µM (inactive). For the same compound, the GI50 in the experiment with MDA-N is 32.4 µM (inactive); with NCI-H226, 27.2 µM (inactive); with NCI-H460 it was 19.1 µM (inactive); in the experiment with NCI/ADR-RES, 21.8 µM (inactive); in the experiment on OVCAR-8 it was 14.1 µM (inactive); with RPMI-8226 it was 9.23 µM (inactive). For the same compound, the GI50 with SF-539 was 27 µM (inactive); in the experiment with SK-MEL-28 it was 6.44 µM (inactive); with SNB-19 it was 37.8 µM (inactive); in the experiment on SNB-75, 30.3 µM (inactive); with SR, 3.46 µM (inactive); in the experiment with SW-620, 33.6 µM (inactive). Further, the GI50 was 23 µM (inactive) in the experiment with T47D and > 45.8 µM (inactive) with UACC-62.
For `COc1cc(NS(C)(=O)=O)ccc1Nc1c2ccccc2nc2c1[nH]c1ccc(NC3OC(CO)C(O)C(O)C3O)cc12` (stereo not given), the GI50 in the experiment with 786-0 was 0.0246 µM (active); in the experiment with ACHN, < 0.0161 µM (active); in the experiment with EKVX, 0.782 µM (active); in the experiment on HOP-92, 0.0224 µM (active); with Hs-578T, 0.518 µM (active); in the experiment with MDA-MB-435 it was 0.798 µM (active). For the same compound, the GI50 with MDA-N was 0.474 µM (active); in the experiment with NCI-H226, < 0.0181 µM (active); with NCI-H460, < 0.01 µM (active); in the experiment with NCI/ADR-RES it was 2.39 µM (inactive); in the experiment on OVCAR-8, 0.0504 µM (active); with RPMI-8226, 0.0973 µM (active). In addition, the GI50 in the experiment with SF-539 is < 0.01 µM (active); in the experiment with SK-MEL-28 it was 0.122 µM (active); in the experiment with SNB-19, 0.0242 µM (active); in the experiment with SNB-75, 0.0251 µM (active); in the experiment on SR it was < 0.01 µM (active); in the experiment on SW-620 it was < 0.0348 µM (active). Further, the results for the GI50 with T47D and in the experiment on UACC-62 were 0.0327 µM (active) and 0.0213 µM (active), respectively.
In the case of `S=C1Cc2c(-c3ccccc3)cc(-c3ccc(Cl)cc3)nc2-c2ccccc2N1`, the GI50 is 1.08 µM (active) in the experiment with 786-0; 1.04 µM (active) in the experiment on ACHN; 2.52 µM (inactive) in the experiment on EKVX; 1.72 µM (inactive) in the experiment on HOP-92; 1.32 µM (inactive) with Hs-578T; 4.79 µM (inactive) in the experiment on MDA-MB-435. Moreover, the GI50 was 4.27 µM (inactive) in the experiment with MDA-N; 2.9 µM (inactive) in the experiment on NCI-H226; 3.27 µM (inactive) in the experiment with NCI-H460; 2.38 µM (inactive) in the experiment on NCI/ADR-RES; 0.982 µM (active) with OVCAR-8; > 100 µM (inactive) in the experiment on RPMI-8226. Further, the GI50 was 3.08 µM (inactive) in the experiment on SF-539; 3.4 µM (inactive) with SK-MEL-28; 1.56 µM (inactive) with SNB-19; 0.951 µM (active) with SNB-75; > 68.7 µM (inactive) in the experiment with SR; 2.94 µM (inactive) in the experiment on SW-620. Moreover, the values for the GI50 in the experiment with T47D and in the experiment on UACC-62 were 4.32 µM (inactive) and 2.45 µM (inactive), respectively.
In the case of `CC(=O)OCC1OC(NC(=S)CCSc2nc3ccccc3c(=O)n2-c2ccccc2)C(OC(C)=O)C(OC(C)=O)C1OC(C)=O` (stereo not given), the GI50 in the experiment on 786-0 is 63.2 µM (inactive); with ACHN it was 83.4 µM (inactive); in the experiment on EKVX, 57.8 µM (inactive); with HOP-92, 16.9 µM (inactive); in the experiment on Hs-578T, 24.8 µM (inactive); in the experiment on MDA-MB-435 it was 52 µM (inactive). In addition, the GI50 with MDA-N was 44.4 µM (inactive); in the experiment on NCI-H226, 50.5 µM (inactive); in the experiment on NCI-H460, > 100 µM (inactive); in the experiment with NCI/ADR-RES it was > 100 µM (inactive); with OVCAR-8 it was > 100 µM (inactive); in the experiment with RPMI-8226, > 100 µM (inactive). The GI50 with SF-539 is 1.64 µM (inactive); in the experiment with SK-MEL-28 it was 59.6 µM (inactive); with SNB-19 it was 34 µM (inactive); with SNB-75 it was 22 µM (inactive); in the experiment on SR, 34.1 µM (inactive); with SW-620 it was 41.2 µM (inactive). The figures for the GI50 in the experiment on T47D and with UACC-62 were 30.5 µM (inactive) and 28.4 µM (inactive), respectively.
On to `CC(=O)O[C@H]1CC[C@@]2(C)C(=CC[C@H]3[C@@H]4C[C@H](N5CCCC5)[C@H](OC(C)=O)[C@@]4(C)CC[C@@H]32)C1`, for which the GI50 with 786-0 was > 100 µM (inactive); in the experiment with ACHN it was > 100 µM (inactive); in the experiment on EKVX, > 100 µM (inactive); with HOP-92 it was > 100 µM (inactive); in the experiment with Hs-578T it was > 100 µM (inactive); with MDA-MB-435, 32 µM (inactive). Also, the GI50 in the experiment with MDA-N is > 51.1 µM (inactive); in the experiment with NCI-H226, > 100 µM (inactive); with NCI-H460, > 100 µM (inactive); with NCI/ADR-RES it was > 100 µM (inactive); with OVCAR-8, > 100 µM (inactive); in the experiment on RPMI-8226 it was > 60.1 µM (inactive). Further, the GI50 with SF-539 was 29.3 µM (inactive); in the experiment with SK-MEL-28 it was 39.8 µM (inactive); in the experiment with SNB-19, > 100 µM (inactive); with SNB-75, > 100 µM (inactive); in the experiment on SR, > 100 µM (inactive); in the experiment on SW-620, > 100 µM (inactive). In addition, the figures for the GI50 with T47D and with UACC-62 were > 100 µM (inactive) and > 56.1 µM (inactive), respectively.
For `CC1=CC(C)C(C)N(CCNS(=O)(=O)c2ccc(C)cc2)c2ccccc21` (stereo not given), the GI50 in the experiment with 786-0 was 14.2 µM (inactive); in the experiment with ACHN, 15.8 µM (inactive); in the experiment with EKVX, 16.4 µM (inactive); in the experiment on HOP-92, 18.8 µM (inactive); with Hs-578T, 12.9 µM (inactive); with MDA-MB-435 it was 13.5 µM (inactive). Moreover, the GI50 was 12.5 µM (inactive) in the experiment with MDA-N; 12.3 µM (inactive) in the experiment on NCI-H226; 12.8 µM (inactive) in the experiment with NCI-H460; 15.2 µM (inactive) in the experiment on NCI/ADR-RES; 14.6 µM (inactive) in the experiment with OVCAR-8; 12.2 µM (inactive) with RPMI-8226. Besides, the GI50 in the experiment with SF-539 was 13.4 µM (inactive); in the experiment on SK-MEL-28 it was 12.9 µM (inactive); in the experiment with SNB-19, > 31.6 µM (inactive); in the experiment with SNB-75, 15.7 µM (inactive); in the experiment on SR it was 16 µM (inactive); with SW-620, > 10 µM (inactive). The GI50 with T47D is 10.8 µM (inactive); with UACC-62, 12.2 µM (inactive).
In the case of `Cc1cc(=O)oc2cc(OC(=O)Nc3ccc(Cl)c(Cl)c3)ccc12`, the GI50 in the experiment with 786-0 is 38.8 µM (inactive); with ACHN, 20.9 µM (inactive); in the experiment on EKVX, 30.8 µM (inactive); in the experiment with HOP-92, 13.6 µM (inactive); in the experiment on Hs-578T, 20.7 µM (inactive); in the experiment with MDA-MB-435, 20.9 µM (inactive). Besides, the GI50 in the experiment on MDA-N is 21.3 µM (inactive); in the experiment with NCI-H226 it was 20.3 µM (inactive); with NCI-H460, 18.5 µM (inactive); in the experiment with NCI/ADR-RES, 30.5 µM (inactive); in the experiment with OVCAR-8, 20.2 µM (inactive); with RPMI-8226, 9.29 µM (inactive). Moreover, the GI50 in the experiment with SF-539 was 18.8 µM (inactive); in the experiment with SK-MEL-28, 25.4 µM (inactive); in the experiment on SNB-19 it was 25.9 µM (inactive); in the experiment with SNB-75 it was 25.2 µM (inactive); with SR it was 19.7 µM (inactive); in the experiment with SW-620 it was 21.4 µM (inactive). The GI50 in the experiment with T47D is 12 µM (inactive); in the experiment with UACC-62 it was 16 µM (inactive).
As to `COC(=O)[C@@H]1C[C@@H](O)CN1C(=O)c1ccc([N+](=O)[O-])cc1[N+](=O)[O-]`, the GI50 in the experiment on 786-0, with ACHN, in the experiment on EKVX, with HOP-92, in the experiment with Hs-578T and in the experiment with MDA-MB-435 was > 100 µM (inactive) throughout. The GI50 in the experiment with MDA-N, in the experiment on NCI-H226, in the experiment with NCI-H460, in the experiment with NCI/ADR-RES, in the experiment with OVCAR-8 and in the experiment with RPMI-8226 was > 100 µM (inactive) each time. Further, the GI50 in the experiment on SF-539, in the experiment with SK-MEL-28, in the experiment on SNB-19, with SNB-75, in the experiment on SR and with SW-620 was > 100 µM (inactive) each time. In addition, the GI50 in the experiment on T47D and with UACC-62 was > 100 µM (inactive) each time.
As to `O=c1ccn([C@@H]2C[C@@H]2CO)c(=O)[nH]1`, the GI50 in the experiment on 786-0, in the experiment on ACHN, with EKVX, with HOP-92, in the experiment with Hs-578T and in the experiment with MDA-MB-435 was > 100 µM (inactive) each time. Also, the GI50 in the experiment with MDA-N, in the experiment on NCI-H226, with NCI-H460, in the experiment on NCI/ADR-RES, in the experiment on OVCAR-8 and with RPMI-8226 was > 100 µM (inactive) each time. The GI50 with SF-539, with SK-MEL-28, in the experiment with SNB-19, with SNB-75, in the experiment with SR and in the experiment on SW-620 was > 100 µM (inactive) in each case. Also, the GI50 in the experiment on T47D and with UACC-62 was > 100 µM (inactive) throughout.

(Values after ChEMBL document CHEMBL1201862, “PubChem BioAssay data set” (2004).)
